Holding throughout (assay type): cell-based
Assay [1] concerns A2058 Melanoma. As to the kind of experiment: In vitro cytotoxicity, free drugs on A2058. The note with it: free drug. Here is the method: (§1) The cytotoxicity of an auristatin Ligand Drug Conjugate or free auristatin drug was measured by a cell proliferation assay employing the protocol described in Promega Corp. Technical Bulletin TB288; Mendoza et al., 2002, Cancer Res. 62:5485-5488), the methods of which is specifically incorporated by reference herein. Briefly, an aliquot of 100 μl of cell culture containing about […] (e.g., HL-60, SK-MEL-5, etc.) in medium is deposited in each well of a 96-well, opaque-walled plate. Control wells were prepared containing medium and without cells. Free Drug or conjugate is added to the experimental wells and incubated for 96 h and are then equilibrated to room temperature for approximately 30 minutes whereupon a volume of CellTiter-Glo™ reagent equal to the volume of cell culture medium present in each well is added. The contents are mixed for 2 minutes on an orbital shaker to induce cell lysis and the plate is incubated at room temperature for 10 minutes to stabilize the luminescence signal for recordation.

Assay [2] relates to IGR-37 Melanoma. As to the kind of experiment: In vitro cytotoxicity, free drugs on IGR-37. The note with it: free drug. Here is the method: as §1
The subject of assay [3] is SK-MEL-5 Melanoma. Briefly: In vitro cytotoxicity, free drugs on SK-MEL-5. The note with it: free drug. Here is the method:
as §1

In assay [4] the test system is MDR+ HL60/RV acute myeloid leukemia cell line. As to the kind of experiment: In vitro cytotoxicity (CellTiter-Glo cell proliferation assay), free drugs on HL60/RV. The note with it: free drug, 96 h incubation; read-out: In vitro IC50 HL60/RV (MDR+). As for the experimental part:
as §1
(In general: ATP-based viability assays read luminescence as a measure of living cells.)

A short description of assay [5]: In vitro cytotoxicity, free drugs on Colo-853. The note with it: free drug; read-out: In vitro IC50 Colo-853 Colon Cancer. As for the experimental part:
as §1

In assay [6] the test system is MDR− HL60 acute myeloid leukemia cell line. Briefly: In vitro cytotoxicity (CellTiter-Glo cell proliferation assay), free drugs on HL60. The note with it: free drug, 96 h incubation; read-out: In vitro IC50 HL60 (MDR−). Here is the method:
as §1

For assay [7], the system named is SK-MEL-28 Melanoma. As to the kind of experiment: In vitro cytotoxicity, free drugs on SK-MEL-28. The note with it: free drug. As for the experimental part:
as §1

Assay [8] relates to A375 Melanoma. As to the kind of experiment: In vitro cytotoxicity, free drugs on A375. The note with it: free drug. As for the experimental part:
as §1

Assay [9] deals with A498 Renal Cell Carcinoma. As to the kind of experiment: In vitro cytotoxicity, 4-load auristatin ADCs on A498. The note with it: 4-load ADC. As for the experimental part: as §1
The subject of assay [10] is L428 Hodgkin Lymphoma. As to the kind of experiment: In vitro cytotoxicity, 4-load auristatin ADCs on L428. The note with it: 4-load ADC. Here is the method: as §1
Assay [11] relates to 786-O Renal Cell Carcinoma. Briefly: In vitro cytotoxicity, 4-load auristatin ADCs on 786-O. The note with it: 4-load ADC. Here is the method:
as §1

Starred links: 1 amine or outer side, 2 acyl side, 3 side chain; linkers in the order of their positions; H or OH if unused. Non-standard residues stand in square brackets, D forms with d. Residues, ends and D or L forms follow the SMILES beside them. *: point of attachment. Dolaproine = CO[C@@H]([C@@H]1CCCN1)[C@@H](C)C(=O)O; X2 = CC(C)[C@@H](C(=O)[*:2])N(C)CCCCCN(C)[*:1]; X5 = CC(C)[C@@H](C(=O)[*:2])N(C)CCCN(C)[*:1]; X7 = CC(C)[C@@H](C(=O)[*:2])N(C)CCN(C)[*:1]; Dil = CC[C@H](C)[C@H](NC)[C@@H](CC(=O)O)OC; X6 = CC(C)[C@@H](C(=O)[*:2])N(C)CCCN[*:1]; X1 = C[C@@H](N*)[C@@H](O)c1ccccc1; NMeV = CN[C@H](C(=O)O)C(C)C; Boc = CC(C)(C)OC(=O)*

For `CC[C@H](C)[C@@H]([C@@H](CC(=O)N1CCC[C@H]1[C@H](OC)[C@@H](C)C(=O)N[C@H](C)[C@@H](O)c1ccccc1)OC)N(C)C(=O)[C@@H](NC(=O)[C@@H](NC)C(C)C)C(C)C` [Compound 3, Monomethyl auristatin E, reference compound] (H-[NMeV]V[Dil][Dolaproine]-X1), the IC50 stood at 0.1 nM in assay [1]; 0.2 nM in [2]; 0.1 nM in assay [3]; 180 nM in [4]; 0.1 nM in assay [5]; 1 nM in assay [6]. For the same molecule, the IC50 in [7] and in [8] was 0.1 nM in each case.

In the case of `CC[C@H](C)[C@@H]([C@@H](CC(=O)N1CCC[C@H]1[C@H](OC)[C@@H](C)C(=O)N[C@@H](Cc1ccccc1)C(=O)O)OC)N(C)C(=O)[C@@H](NC(=O)[C@H](C(C)C)N(C)CCCNC(=O)OC(C)(C)C)C(C)C` [Compound 18, N-Boc-propyl-AF] (Boc-[X6]V[Dil][Dolaproine]F-OH), the IC50 in assay [1] (Homo sapiens, A2058) amounted to 9.1 nM; in assay [2] (Homo sapiens, IGR-37), 13.7 nM; in assay [3] (Homo sapiens, SK-MEL-5), 4 nM; in [5] it was 17.5 nM; in assay [7] (Homo sapiens, SK-MEL-28) it was 21 nM; in assay [8] (Homo sapiens, A-375), 4.9 nM.

As to `CC[C@H](C)[C@@H]([C@@H](CC(=O)N1CCC[C@H]1[C@H](OC)[C@@H](C)C(=O)N[C@@H](Cc1ccccc1)C(=O)O)OC)N(C)C(=O)[C@@H](NC(=O)[C@H](C(C)C)N(C)CCN(C)C(=O)OC(C)(C)C)C(C)C` [Compound 24, Boc-(N-methyl-ethyl)-AF] (Boc-[X7]V[Dil][Dolaproine]F-OH), the IC50 was 5.2 nM in assay [1] (Homo sapiens, A2058); 23.1 nM in [2] (Homo sapiens, IGR-37); 5.7 nM in assay [3] (Homo sapiens, SK-MEL-5); 19.6 nM in [5]; 13.9 nM in assay [7] (Homo sapiens, SK-MEL-28); 4.9 nM in [8] (Homo sapiens, A-375).

On to `CC[C@H](C)[C@@H]([C@@H](CC(=O)N1CCC[C@H]1[C@H](OC)[C@@H](C)C(=O)N[C@@H](Cc1ccccc1)C(=O)O)OC)N(C)C(=O)[C@@H](NC(=O)[C@H](C(C)C)N(C)CCCN(C)C(=O)OC(C)(C)C)C(C)C` [Compound 25, (Boc-N-methyl)-propyl-AF] (Boc-[X5]V[Dil][Dolaproine]F-OH), for which the IC50 is 4 nM in assay [1] (Homo sapiens, A2058); 16.1 nM in [2] (Homo sapiens, IGR-37); 6.1 nM in assay [3] (Homo sapiens, SK-MEL-5); 15.1 nM in [5]; 17.2 nM in assay [7] (Homo sapiens, SK-MEL-28); 5.9 nM in [8] (Homo sapiens, A-375).

Regarding `CC[C@H](C)[C@@H]([C@@H](CC(=O)N1CCC[C@H]1[C@H](OC)[C@@H](C)C(=O)N[C@@H](Cc1ccccc1)C(=O)O)OC)N(C)C(=O)[C@@H](NC(=O)[C@H](C(C)C)N(C)CCCCCN(C)C(=O)OC(C)(C)C)C(C)C` [Compound 26, (Boc-N-methyl)-pentyl-AF] (Boc-[X2]V[Dil][Dolaproine]F-OH), the IC50 in assay [1] (Homo sapiens, A2058) was found to be 0.9 nM; in assay [2] (Homo sapiens, IGR-37) it was 6.5 nM; in assay [3] (Homo sapiens, SK-MEL-5) it was 0.9 nM; in assay [5], 12.5 nM; in assay [7] (Homo sapiens, SK-MEL-28), 9.6 nM; in assay [8] (Homo sapiens, A-375), 2.1 nM.

B1: h1F6-37(4): 4-load auristatin ADC targeting CD70: h1F6 antibody conjugated to drug linker compound 37 (conjugate, chains of the INN, looked up)
VH: QVQLVQSGAEVKKPGASVKVSCKASGYTFTNYGMNWVRQAPGQGLKWMGWINTYTGEPTYADAFKGRVTMTRDTSISTAYMELSRLRSDDTAVYYCARDYGDYGMDYWGQGTTVTVSS
VL: DIVMTQSPDSLAVSLGERATINCRASKSVSTSGYSFMHWYQQKPGQPPKLLIYLASNLESGVPDRFSGSGSGTDFTLTISSLQAEDVAVYYCQHSREVPWTFGQGTKVEIK
modifications: auristatin drug linker compound 37, 4-load
On to B1, for which the “In vitro IC50 A498 Renal Cell Carcinoma” value in [9] was found to be 0.039 µg/mL. The “In vitro IC50 L428 Hodgkin Lymphoma” value in assay [10] came out at 0.002 µg/mL. Also, the “In vitro IC50 786-O Renal Cell Carcinoma” value in assay [11] stood at 0.023 µg/mL.

B2: h1F6-38(4): 4-load auristatin ADC targeting CD70: h1F6 antibody conjugated to drug linker compound 38 (conjugate, chains of the INN, looked up)
VH: QVQLVQSGAEVKKPGASVKVSCKASGYTFTNYGMNWVRQAPGQGLKWMGWINTYTGEPTYADAFKGRVTMTRDTSISTAYMELSRLRSDDTAVYYCARDYGDYGMDYWGQGTTVTVSS
VL: DIVMTQSPDSLAVSLGERATINCRASKSVSTSGYSFMHWYQQKPGQPPKLLIYLASNLESGVPDRFSGSGSGTDFTLTISSLQAEDVAVYYCQHSREVPWTFGQGTKVEIK
modifications: auristatin drug linker compound 38, 4-load
Take B2: the “In vitro IC50 A498 Renal Cell Carcinoma” value in [9] turned out to be 0.036 µg/mL. Besides, the “In vitro IC50 L428 Hodgkin Lymphoma” value in [10] turned out to be 0.002 µg/mL. Besides, in assay [11], the “In vitro IC50 786-O Renal Cell Carcinoma” value was determined as 0.012 µg/mL.

B3: h1F6-35(4): 4-load auristatin ADC targeting CD70: h1F6 antibody conjugated to drug linker compound 35 (conjugate, chains of the INN, looked up)
VH: QVQLVQSGAEVKKPGASVKVSCKASGYTFTNYGMNWVRQAPGQGLKWMGWINTYTGEPTYADAFKGRVTMTRDTSISTAYMELSRLRSDDTAVYYCARDYGDYGMDYWGQGTTVTVSS
VL: DIVMTQSPDSLAVSLGERATINCRASKSVSTSGYSFMHWYQQKPGQPPKLLIYLASNLESGVPDRFSGSGSGTDFTLTISSLQAEDVAVYYCQHSREVPWTFGQGTKVEIK
modifications: auristatin drug linker compound 35, 4-load
With B3, the “In vitro IC50 A498 Renal Cell Carcinoma” value in assay [9] was 0.023 µg/mL. The “In vitro IC50 L428 Hodgkin Lymphoma” value in assay [10] stood at 0.002 µg/mL. The “In vitro IC50 786-O Renal Cell Carcinoma” value in [11] was determined as 0.007 µg/mL.

B4: h1F6-mc-vc-MMAF(4): comparator 4-load h1F6 ADC having an mc-vc-MMAF drug linker (conjugate, chains of the INN, looked up)
VH: QVQLVQSGAEVKKPGASVKVSCKASGYTFTNYGMNWVRQAPGQGLKWMGWINTYTGEPTYADAFKGRVTMTRDTSISTAYMELSRLRSDDTAVYYCARDYGDYGMDYWGQGTTVTVSS
VL: DIVMTQSPDSLAVSLGERATINCRASKSVSTSGYSFMHWYQQKPGQPPKLLIYLASNLESGVPDRFSGSGSGTDFTLTISSLQAEDVAVYYCQHSREVPWTFGQGTKVEIK
modifications: mc-vc-MMAF, 4-load
notes: comparator 4-load h1F6 ADC having an mc-vc-MMAF drug linker
As for B4, the “In vitro IC50 A498 Renal Cell Carcinoma” value in [9] was 0.008 µg/mL. In addition, the “In vitro IC50 L428 Hodgkin Lymphoma” value in [10] is 0.007 µg/mL. The “In vitro IC50 786-O Renal Cell Carcinoma” value in assay [11] amounted to 0.005 µg/mL.

B5: h1F6-mc-vc-MMAE(4): comparator 4-load h1F6 ADC having an mc-vc-MMAE drug linker (conjugate, chains of the INN, looked up)
VH: QVQLVQSGAEVKKPGASVKVSCKASGYTFTNYGMNWVRQAPGQGLKWMGWINTYTGEPTYADAFKGRVTMTRDTSISTAYMELSRLRSDDTAVYYCARDYGDYGMDYWGQGTTVTVSS
VL: DIVMTQSPDSLAVSLGERATINCRASKSVSTSGYSFMHWYQQKPGQPPKLLIYLASNLESGVPDRFSGSGSGTDFTLTISSLQAEDVAVYYCQHSREVPWTFGQGTKVEIK
modifications: mc-vc-MMAE, 4-load
notes: comparator 4-load h1F6 ADC having an mc-vc-MMAE drug linker
For the molecule B5, the “In vitro IC50 A498 Renal Cell Carcinoma” value in assay [9] was more than 1 µg/mL. The “In vitro IC50 L428 Hodgkin Lymphoma” value in assay [10] was more than 1 µg/mL. Besides, the “In vitro IC50 786-O Renal Cell Carcinoma” value in [11] is more than 1 µg/mL.

Source of the values: US11857565B2, “Hydrophobic Auristatin F compounds and conjugates thereof” (priority 2018, dated 2024).
